Assay type in all cases: cell-based
In assay [1] the test system is human fibrosarcoma cells HT-1080. As to the kind of experiment: Anti-fibrosis activity test: inhibition of proliferation of human fibrosarcoma cells HT-1080 (CCK-8). The conditions noted are these: Homo sapiens, HT-1080, 48 h, human fibrosarcoma cells HT-1080, CCK-8, 48 hours. The essentials: (§1)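 48 h compound treatment of fibroblast-type cells seeded at 2×10^4 cells/mL, 37° C, 5% CO2; viability by CCK-8 (2 h, A450). Inhibition rate calculated against blank control, IC50 by curve fitting; pirfenidone served as reference.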

The test system of the next assay is BHK-21 cells. The experiment in a line: Anti-fibrosis activity test: inhibition of BHK-21 cell proliferation (CCK-8). The conditions noted are these: Mesocricetus auratus, BHK-21, 48 h, CCK-8, 48 hours after administration. The essentials: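 Proliferation of BHK-21 cells is measured by CCK-8 at 450 nm following 48 h compound exposure at several concentrations. Inhibition is expressed relative to blank control and IC50 is computed from it.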

Assay [2] relates to human embryonic lung fibroblast IMR-90. As to the kind of experiment: Anti-fibrosis activity test: inhibition of proliferation of human embryonic lung fibroblast IMR-90 (CCK-8). The note with it: human embryonic lung fibroblast IMR-90, CCK-8, 48 hours. The essentials:
as §1

A further assay has as its system NF-κB. The experiment in a line: Immunological activity test: inhibition of NF-κB activity. The note with it: initial concentration of 30 μM; a/b isomers given as first/second symbol; read-out: IC50 (μM), inhibitory activity against NF-κB. The gist of the method: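 Single-point testing at 30 μM preceded IC50 determination.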
For assay [3], the system named is cardiac fibroblast RAT-iCell-C002. The experiment in a line: Anti-fibrosis activity test: inhibition of proliferation of cardiac fibroblast RAT-iCell-C002 (CCK-8). The conditions noted are these: Cardiac fibroblast, 48 h, cardiac fibroblast RAT-iCell-C002, CCK-8, 48 hours. The gist of the method:
as §1

The subject of assay [4] is mouse macrophages (RAW264.7). As to the kind of experiment: Lipopolysaccharide-induced NO secretion in macrophages (Griess). The note with it: Mus musculus, RAW264.7, 24 h, RAW264.7, LPS 1 μg/ml, a/b isomers given as first/second symbol, read-out: IC50 (μM), inhibition of lipopolysaccharide-induced NO secretion in macrophages. The gist of the method:
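RAW264.7 macrophages in DMEM with 10% FBS received test samples at several concentrations and were stimulated with 1 μg/ml LPS for 24 h. NO in the supernatant was measured with the Griess reagent at 548 nm, […].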

Assay [5] relates to human lung fibroblasts HFL1. The experiment in a line: Anti-fibrosis activity test: inhibition of proliferation of human lung fibroblasts HFL1 (CCK-8). The conditions noted are these: Homo sapiens, HFL1, 48 h, human lung fibroblasts HFL1, CCK-8, 48 hours. The gist of the method:
as §1

In assay [6] the test system is human hepatic stellate cells LX-2. As to the kind of experiment: Anti-fibrosis activity test: inhibition of proliferation of human hepatic stellate cells LX-2 (CCK-8). The conditions noted are these: Homo sapiens, 48 h, human hepatic stellate cells LX-2, CCK-8, 48 hours. The gist of the method:
as §1

Assay [7] deals with human dermal fibroblasts CCC-ESF-1. The experiment in a line: Anti-fibrosis activity test: inhibition of proliferation of human dermal fibroblasts CCC-ESF-1 (CCK-8). The note with it: Fibroblast; human dermal fibroblasts CCC-ESF-1, CCK-8, 48 hours. The gist of the method:
as §1

Bounds are passed on as bounds.

In the case of `O=C1c2c(nc3c(O)cccc3c2O)-c2cccn21` [Compound 445b, 5,9-dihydroxy-10H-pyrrolizino[1,2-b]quinolin-10-one], the concentration for half-maximal inhibition (IC50) was 0.05 to 5 mM in assay [1]; 0.05 to 5 mM in the assay with BHK-21 cells; 0.05 to 5 mM in assay [2]; 1 to 10 µM with NF-κB; 0.05 to 5 mM in [3]; 1 to 10 µM in assay [4]. The 50% inhibitory concentration (IC50) in [5], in assay [6] and in [7] was 0.05 to 5 mM each time.

As for `COc1cccc2c(=O)c3c([nH]c12)-c1cccn1C3=O` [Compound 446a, 5-Methoxy-9H-pyrrolizino[1,2-b]quinoline-9,10(4H)-dione], the 50% inhibitory concentration (IC50) in assay [1] is 0.05 to 5 mM; in the assay on BHK-21 cells it was 0.05 to 5 mM; in assay [2], 0.05 to 5 mM; in the assay with NF-κB, 0.1 to 1 µM; in assay [3] it was 0.05 to 5 mM; in assay [4], 1 to 10 µM. The 50% inhibitory concentration (IC50) in [5], in [6] and in assay [7] was 0.05 to 5 mM in each case.

Consider `COc1cccc2c(O)c3c(nc12)-c1cccn1C3=O` [Compound 446b, 9-hydroxy-5-methoxy-10H-pyrrolizino[1,2-b]quinolin-10-one], for which the IC50 in assay [1] was in the range of 0.05 to 5 mM; in the assay on BHK-21 cells it was 0.05 to 5 mM; in assay [2], 0.05 to 5 mM; in the assay with NF-κB it was 0.001 to 0.1 µM; in [3], 0.05 to 5 mM; in assay [4] it was 1 to 10 µM. Moreover, the 50% inhibitory concentration (IC50) in assay [5], in assay [6] and in [7] was 0.05 to 5 mM each time.

On to `N#Cc1cccc2c(=O)c3c([nH]c12)-c1cccn1C3=O` [Compound 447a, 9,10-Dioxo-4,10-dihydro-9H-pyrrolizino[1,2-b]quinoline-5-carbonitrile], for which the IC50 in assay [1] is under 0.05 mM; in the assay with BHK-21 cells it was 0.05 to 5 mM; in assay [2], 0.05 to 5 mM; with NF-κB, 0.1 to 1 µM; in [3] it was 0.05 to 5 mM; in assay [4] it was 0.1 to 1 µM. The IC50 in assay [5], in assay [6] and in assay [7] was 0.05 to 5 mM in each case.

With `N#Cc1cccc2c(O)c3c(nc12)-c1cccn1C3=O` [Compound 447b, 9-hydroxy-10-oxo-10H-pyrrolizino[1,2-b]quinoline-5-carbonitrile], the IC50 in assay [1] lay in the range of 0.05 to 5 mM; in the assay with BHK-21 cells it was 0.05 to 5 mM; in [2], 0.05 to 5 mM; with NF-κB, 0.1 to 1 µM; in assay [3], 0.05 to 5 mM; in assay [4], 1 to 10 µM. Also, the IC50 in assay [5], in [6] and in [7] was 0.05 to 5 mM throughout.

Turning to `O=C1c2c([nH]c3c(C(F)(F)F)cccc3c2=O)-c2cccn21` [Compound 448a, 5-(Trifluoromethyl)-9H-pyrrolizino[1,2-b]quinoline-9,10(4H)-dione], the half-inhibitory concentration (IC50) in assay [1] lay in the range of 0.05 to 5 mM; in the assay with BHK-21 cells it was 0.05 to 5 mM; in assay [2], 0.05 to 5 mM; with NF-κB, 1 to 10 µM; in assay [3], 0.05 to 5 mM; in [4] it was 0.1 to 1 µM. Also, the concentration for half-maximal inhibition (IC50) in assay [5], in assay [6] and in [7] was 0.05 to 5 mM each time.

On to `O=C1c2c(nc3c(C(F)(F)F)cccc3c2O)-c2cccn21` [Compound 448b, 9-hydroxy-5-(trifluoromethyl)-10H-pyrrolizino[1,2-b]quinolin-10-one], for which the concentration for half-maximal inhibition (IC50) was under 0.05 mM in [1]; 0.05 to 5 mM in the assay on BHK-21 cells; 0.05 to 5 mM in assay [2]; 1 to 10 µM with NF-κB; 0.05 to 5 mM in assay [3]; 1 to 10 µM in assay [4]. Besides, the IC50 in [5], in assay [6] and in [7] was 0.05 to 5 mM each time.

`O=C1c2c(n(Cc3cccc(F)c3)c3c(F)cccc3c2=O)-c2cccn21` [Compound 458a, 5-Fluoro-4-(3-fluorobenzyl)-9H-pyrrolizino[1,2-b]quinoline-9,10(4H)-dione]: the IC50 in assay [1] was 0.05 to 5 mM; in the assay on BHK-21 cells, under 0.05 mM; in [2], 0.05 to 5 mM; in the assay on NF-κB it was 0.1 to 1 µM; in [3], 0.05 to 5 mM; in [4], 1 to 10 µM. The half-inhibitory concentration (IC50) in [5], in assay [6] and in [7] was 0.05 to 5 mM throughout.

With `O=C1c2c(nc3c(F)cccc3c2OCc2cccc(F)c2)-c2cccn21` [Compound 458b, 5-fluoro-9-((3-fluorobenzyl)oxy)-10H-pyrrolizino[1,2-b]quinolin-10-one], the IC50 in [1] is 0.05 to 5 mM; with BHK-21 cells, 0.05 to 5 mM; in assay [2] it was 0.05 to 5 mM; in the assay with NF-κB, 1 to 10 µM; in assay [3], 0.05 to 5 mM; in assay [4], 1 to 10 µM. Besides, the IC50 in [5], in assay [6] and in assay [7] was 0.05 to 5 mM in each case.

On to `N#Cc1cccc2c1c(=O)c1c(n2Cc2ccc(F)cc2)-c2cccn2C1=O` [Compound 462a, 4-(4-Fluorobenzyl)-9,10-dioxo-4,10-dihydro-9H-pyrrolizino[1,2-b]quinoline-8-carbonitrile], for which the concentration for half-maximal inhibition (IC50) in assay [1] is 0.05 to 5 mM; in the assay on BHK-21 cells it was under 0.05 mM; in [2] it was 0.05 to 5 mM; in the assay on NF-κB, 0.1 to 1 µM; in assay [3], 0.05 to 5 mM; in assay [4], 1 to 10 µM. Further, the IC50 in assay [5], in [6] and in assay [7] was 0.05 to 5 mM throughout.

Take `N#Cc1cccc2nc3c(c(OCc4ccc(F)cc4)c12)C(=O)n1cccc1-3` [Compound 462b, 9-((4-fluorobenzyl)oxy)-10-oxo-10H-pyrrolizino[1,2-b]quinoline-8-carbonitrile]: the IC50 was 0.05 to 5 mM in [1]; 0.05 to 5 mM in the assay with BHK-21 cells; 0.05 to 5 mM in assay [2]; 0.1 to 1 µM in the assay with NF-κB; 0.05 to 5 mM in assay [3]; 1 to 10 µM in assay [4]. Further, the IC50 in [5], in [6] and in assay [7] was 0.05 to 5 mM each time.

In the case of `O=C1c2c([nH]c3cccc(Cl)c3c2=O)-c2cccn21` [Compound 464a, 8-Chloro-9H-pyrrolizino[1,2-b]quinoline-9,10(4H)-dione], the IC50 is 0.05 to 5 mM in assay [1]; under 0.05 mM in the assay with BHK-21 cells; 0.05 to 5 mM in assay [2]; 1 to 10 µM with NF-κB; 0.05 to 5 mM in assay [3]; 1 to 10 µM in [4]. Moreover, the 50% inhibitory concentration (IC50) in [5] is under 0.05 mM; in assay [6], 0.05 to 5 mM; in assay [7] it was 0.05 to 5 mM.

Consider `O=C1c2c(nc3cccc(Cl)c3c2O)-c2cccn21` [Compound 464b, 8-chloro-9-hydroxy-10H-pyrrolizino[1,2-b]quinolin-10-one], for which the 50% inhibitory concentration (IC50) was in the range of 0.05 to 5 mM in [1]; 0.05 to 5 mM with BHK-21 cells; 0.05 to 5 mM in [2]; 1 to 10 µM in the assay on NF-κB; 0.05 to 5 mM in [3]; 1 to 10 µM in [4]. Further, the concentration for half-maximal inhibition (IC50) in assay [5] was under 0.05 mM; in [6], 0.05 to 5 mM; in assay [7], 0.05 to 5 mM.

`O=C1c2c(n(Cc3ccc(F)cc3)c3cccc(F)c3c2=O)-c2cccn21` [Compound 468a, 8-Fluoro-4-(4-fluorobenzyl)-9H-pyrrolizino[1,2-b]quinoline-9,10(4H)-dione]: the half-inhibitory concentration (IC50) in [1] was 0.05 to 5 mM; with BHK-21 cells it was under 0.05 mM; in assay [2], 0.05 to 5 mM; in the assay on NF-κB it was 0.1 to 1 µM; in assay [3] it was 0.05 to 5 mM; in assay [4] it was 1 to 10 µM. Further, the IC50 in assay [5], in [6] and in assay [7] was 0.05 to 5 mM each time.
